The test relates to Human mesenchymal stem cells (MSCs). Put plainly: MTT viability of Doxorubicin-induced senescent and non-senescent MSCs. The format is cell-based. Conditions: for EC50: Homo sapiens, Mesenchymal stem cells, MTT. The source says: IMR90 and WI38 lung fibroblasts were purchased from ECACC‐Merck. Human bone marrow (BM)‐derived mesenchymal stromal cells (MSCs) were purchased from Lonza. Human umbilical vein endothelial cells (HUVECs) are primary cells obtained from a pool of donors purchased from Clonetics (Lonza). Murine ear fibroblasts (MearFs) were obtained from C57BL/6J mice maintained in the INRCA “Specific Pathogen Free” (SPF) animal facility. MCF7 breast cancer cells were purchased from ATCC. For dose–response curves, IMR90 and WI38 were induced to senescence through replicative passages; MSCs, HUVECs, and MearFs senescence was induced with Doxorubicin; MCF7 senescence was induced with 4‐Hydroxytamoxifen (Lee et al. [2014]). The EC50 was calculated using GraphPad Prism 10 software. All treatment specifications are reported in the extended section.
Cell viability was determined using an MTT assay. Absorbance was measured using a NB‐12‐0035 Microplate Reader (NeoBiotech Co.). Data are expressed as a percentage of viability compared with untreated cells.
Human bone marrow (BM)-derived mesenchymal stromal cells (MSCs) were purchased from Lonza (Allendale, NJ, USA) and cultured in α-MEM (Euroclone, Milano, Italy), with 10% fetal bovine serum (FBS, Lonza, Stein, Switzerland), 100 U/mL penicillin, […] streptomycin and 2 mM L-glutamine. Cells were seeded at a density of 5000/cm^2 and maintained at 37°C in a humidified atmosphere with 5% CO2. The culture medium was changed at 48 h intervals, and cells were trypsinized when almost 80% were confluent using 0.25% trypsin-EDTA (Euroclone, Milano, Italy). […]
Cell viability assay. Cell viability has been determined with MTT (3-(4,5-dimethylthiazol-2-yl)-2, 5-diphenyltetrazolium bromide) assay. […] Insoluble formazan salts produced were solubilized with DMSO incubation, and then absorbance was measured at 540 nm using a microplate reader (NB-12-0035 Microplate Reader, NeoBiotech Co., Seoul, Republic of Korea). Data are expressed as a percentage of viability compared with untreated cells (the control group has been considered 100% of viability).

Read-outs that look alike come from different tables or passages of the source.

One may read the EC50 as the midpoint of the concentration-response curve.

Regarding `Cc1ccccc1-n1c(=O)n(Cc2ccccc2)c(=O)c2[nH]cnc21` [Compound K5, 1-benzyl-3-(2-methylphenyl)-7H-purine-2,6-dione], the “Senolytic evidence (no, partly/yes)” value (DNA damage (Doxorubicin)) was “Partly”. Further, the 50% effective concentration (EC50) is above 200 µM (DNA damage (Doxorubicin), read-out: EC50 senescent cells) and above 500 µM (read-out: EC50 proliferating cells).

The values above are taken from PMC12266748, “A Xanthine Derivative With Novel Heat Shock Protein 90‐Alpha Inhibitory and Senolytic Properties” (Aging Cell, 2025).
